Test results: patent publication US10011589B2, “Treatments for gastrointestinal conditions” (BOARD OF REGENTS, THE UNIVERSITY OF TEXAS SYSTEM, priority 2014, dated 2018)
≈ marks a conversion by molar mass, not a printed value. Read-outs that look alike come from different tables or passages of the source.

What was measured:
[1] = tested on: C. difficile strains R20291 and BAA-1875; assay: MIC testing against C. difficile strains R20291 and BAA-1875; assay type: cell-based, Clostridium difficile; conditions: for fold less active than 1971 (MIC): relative to parent 1971; for MIC: Clostridioides difficile, BAA1875, C. difficile R20291 and BAA-1875 (FIG. 8), 24 h, 37° C., anaerobic
Method: (§1) The synthesized compounds were initially tested against four virulent C. difficile strains: CD1803 (toxinotype III, 95 NAP1), CD1875 (toxinotype V, NAP7), R20291 (ribotype 027—from A. Sonenshein, Tufts University, USA), and BAA-1875 (ribotype 078, from American Type Culture Collection-ATCC). The activities (i.e. Minimum Inhibitory Concentrations-MICs) of test compounds were determined in 24 or 96 well microtitre plates using bacterial inocula of 10^6 cfu/mL and were defined as the lowest concentration of test compound that inhibited visible growth after 24 h of incubation at 37° C. in an A35 anaerobic chamber (Don-Whitley).

[2] = tested on: C. difficile strain ATCC 43596; assay: MIC against infecting strain ATCC 43596; assay type: cell-based, Clostridium difficile
[3] = Cecal content concentrations in hamsters; assay type: in vivo; conditions: for mean peak cecal concentration: hamster cecal contents at 1, 3 and 5 h after oral dosing 100 mg/kg, LLOQ 10 ng/mL
Method: (§2) After dosing animals (n=3 per time point) as above, animals were humanely sacrificed at time points and their cecal contents collected and stored at −20° C. For plasma samples, 25 μL of plasma was placed in 384-well analytical plate and quenched by the addition of 50 μL of acetonitrile containing 4 mg/L warfarin as an internal standard. The plate was sealed, shaken at 600 rpm for 10 min, and then was centrifuged at 4000 rpm for 20 min. 15 μL of the supernatant was transferred to a new analytical 96-well plate and mixed with 100 μL of MilliQ water. The samples were analyzed by injecting 5 μL onto a Waters UPLC/SQD LC-MS/MS system. The cecal samples were processed by adding 100 μL of acetonitrile containing 4 mg/L of warfarin (internal standard) to the microfuge tubes containing cecal matter (˜50 mg). The suspension was vortexed for 10 sec, sonicated for 1 min and then centrifuged at 10,000 rpm for 10 min. Aliquots (50 μL) of the collected supernatants were then transferred to a 384-well plate and analyzed by high resolution mass spectroscopy using Waters XEVO QTOF LCMS.
To evaluate this in vivo, we determined the concentrations of the three compounds in the cecal contents recovered from hamsters at 1, 3 and 5 h time points following oral dosing (FIG. 19).

[4] = Pharmacokinetic study in hamsters, plasma; assay type: in vivo; conditions: male, Syrian, po, hamster, 100 mg/kg in PEG-400:water (85:15); for AUC: read-out: total exposure (AUC) in plasma
Method: as §2, with “Pharmacokinetic studies were assessed in male Syrian hamsters (˜100 g), from Charles-River, with each carrying a pre-implanted jugular vein cannula. Hamsters (n=5 per group) were fasted overnight and for the duration of the experiment (7 h). After collecting pre-dose blood samples (200 μL), animals were dosed with 100 mg/kg of compounds formulated in PEG-400:water (85:15). At various time points blood samples were collected into heparinized coated tubes that were centrifuged at 3000 rpm for 10 min to yield plasma, which was stored at −20° C. After” for “After”

[5] = In vitro microsomal stability; assay type: in vitro ADME; conditions: microsomes; data not shown; read-out: microsomal stability t½ (converted)
Description: Thus, the very low concentration of the hybrids in the plasma might likely be due to a combination of poor intestinal absorption and hepatic clearance.

Caco-2 monolayer = assay: Caco-2 cell permeability assay; assay type: in vitro ADME
Method: The permeability co-efficient (Papp A-B) of the compounds were calculated and the ability of compounds to move from the apical to the basolateral side of Caco-2 monolayer is shown in FIG. 16.

[6] = tested on: Clostridium difficile infection; conditions: severe CDI; cited from earlier work
[7] = tested on: C. difficile strain ATCC 43596; assay: Hamster model of CDI (efficacy); assay type: in vivo, Golden Syrian hamsters
Method: Golden Syrian hamsters (˜100 g) from Charles River Laboratories were separately housed in sterile cages and maintained on sterile food and water. On day −1, animals were subcutaneously injected with clindamycin phosphate solution (50 mg/kg, from Hospira). After 20 h (day 0), hamsters were infected by oral gavage with 10^6 cfu of the C. difficile strain ATCC 43596 grown in Sporulation Medium and washed once with pre-reduced PBS; 15. […] After 5 days of treatment, surviving hamsters were monitored for up to 30 days for signs of disease as described by Anton et al. All moribund animals were euthanized, as well as those that survived the post-treatment monitoring period (30 days); ceca were recovered from all animals. All animal experiments were approved by The Institutional Animal Care and Use Committee of The University of Texas at Arlington.

C. difficile = assay: MIC of nitro and des-nitro analogs (mode of action); assay type: cell-based, Clostridium difficile; conditions: Clostridioides difficile; des-nitro analogs (FIG. 11)
[8] = tested on: C. difficile strain BAA-1803; assay: MIC against C. difficile strain BAA-1803; assay type: cell-based, Clostridium difficile; conditions: 3-position substituents
Method: as §1

[9] = literature; cited from earlier work
[10] = Clostridioides difficile, ATCC43596, infecting strain ATCC 43596, read-out: MIC

CC(=O)C1=C(O)CN(CCn2c([N+](=O)[O-])cnc2C)C1=O [Compound 2153, 3-acetyl-4-hydroxy-1-(2-(2-methyl-5-nitro-1H-imidazol-1-yl)ethyl)-1H-pyrrol-2(5H)-one]
fold less active than 1971 (MIC) [1]: > 64 fold

CC(=O)C1=C(O)C(Cc2ccc(-c3ccccc3)cc2)N(CCn2c([N+](=O)[O-])cnc2C)C1=O (centres unmarked) [Compound 2345, 5-([1,1′-biphenyl]-4-ylmethyl)-3-acetyl-4-hydroxy-1-(2-(2-methyl-5-nitro-1H-imidazol-1-yl)ethyl)-1H-pyrrol-2(5H)-one]
MIC [2, 10]: 0.25 µg/mL (≈ 0.543 µM) | fold difference in cecal concentration of 2344 and 2345 ([3]; 2345 versus 2344): 12 fold | mean peak cecal concentration [3]: 32,649 ng/mL | Cmax [4]: 616 ng/mL | Tmax [4]: 15 min | AUC [4]: 355 ng·h/mL | half-life [5]: 79.8 min

Cc1cnc([N+](=O)[O-])n1CCNC(=O)C1=C(O)C(CC(C)C)NC1=O (centres unmarked) [Compound 2122, 4-hydroxy-5-isobutyl-N-(2-(5-methyl-2-nitro-1H-imidazol-1-yl)ethyl)-2-oxo-2,5-dihydro-1H-pyrrole-3-carboxamide]
fold less active than 1971 (MIC) [1]: 24 fold

CCC(C)C1C(O)=C(C(C)=O)C(=O)N1CCn1c([N+](=O)[O-])cnc1C (centres unmarked) [Compound 2155, 3-acetyl-5-(sec-butyl)-4-hydroxy-1-(2-(2-methyl-5-nitro-1H-imidazol-1-yl)ethyl)-1H-pyrrol-2(5H)-one]
Caco-2 permeation in words (Caco-2 monolayer; Caco-2): slightly more permeable than vancomycin | permeability co-efficient (Papp A-B) (Caco-2 monolayer; Caco-2): 284.5±34.7 to 307±35.6

Cc1ncc([N+](=O)[O-])n1CCO [metronidazole, reference compound]
MIC ([2]; Clostridioides difficile, ATCC43596): 0.125 µg/mL (≈ 0.73 µM) | patients relapsing following therapy [6]: more than 25% | survival, maximum days post-infection ([7]; 50 mg/kg once daily, days 1 to 5, oral): ≤ 10 days | Cmax [4]: 51000 ng/mL | Tmax [4]: 60 min | AUC [4]: 135000 ng·h/mL | Caco-2 permeation in words (Caco-2 monolayer; apical to basolateral): highly permeable | MIC [1]: 0.25 µg/mL (≈ 1.46 µM)

CC(=O)C1=C(O)C(Cc2cccc3ccccc23)N(CCn2ccnc2C)C1=O (centres unmarked) [Compound 2699, 3-acetyl-4-hydroxy-1-(2-(2-methyl-1H-imidazol-1-yl)ethyl)-5-(naphthalen-1-ylmethyl)-1H-pyrrol-2(5H)-one]
MIC (C. difficile): > 128 µg/mL

Cc1ncc([N+](=O)[O-])n1CCN1C(=O)C(C(=O)c2ccc(F)cc2)=C(O)[C@H]1CC(C)C [Compound 2315, (R)-3-(4-fluorobenzoyl)-4-hydroxy-5-isobutyl-1-(2-(2-methyl-5-nitro-1H-imidazol-1-yl)ethyl)-1H-pyrrol-2(5H)-one]
activity / MIC in words (FIG. 10) [8]: No difference in MIC | Caco-2 permeation in words (Caco-2 monolayer; Caco-2): slightly more permeable than vancomycin | permeability co-efficient (Papp A-B) (Caco-2 monolayer; Caco-2): 284.5±34.7 to 307±35.6

Cc1ncc([N+](=O)[O-])n1CCN1C(=O)C=C(O)C1CC(C)C.O=C(O)C(F)(F)F (centres unmarked) [Compound 2314, 4-hydroxy-5-isobutyl-1-(2-(2-methyl-5-nitro-1H-imidazol-1-yl)ethyl)-1H-pyrrol-2(5H)-one, TFA]
activity / MIC in words (FIG. 10) [8]: loss of activity

CC(=O)C1=C(O)C(CC(C)C)N(CCn2c([N+](=O)[O-])cnc2C)C1=O (centres unmarked) [Compound 1971, 3-acetyl-4-hydroxy-5-isobutyl-1-(2-(2-methyl-5-nitro-1H-imidazol-1-yl)ethyl)-1H-pyrrol-2(5H)-one]
MIC [2, 10]: 0.5 µg/mL (≈ 1.43 µM) | activity / MIC in words (FIG. 10) [8]: No difference in MIC | MIC [1]: 1 to 2 µg/mL (≈ 2.85 to 5.71 µM) | fold less active than metronidazole (MIC) ([1]; relative to metronidazole): 4 to 8 fold

CN[C@H](CC(C)C)C(=O)N[C@H]1C(=O)N[C@@H](CC(N)=O)C(=O)N[C@H]2C(=O)N[C@H]3C(=O)N[C@H](C(=O)N[C@H](C(=O)O)c4cc(O)cc(O)c4-c4cc3ccc4O)[C@H](O)c3ccc(c(Cl)c3)Oc3cc2cc(c3O[C@@H]2O[C@H](CO)[C@@H](O)[C@H](O)[C@H]2O[C@H]2C[C@](C)(N)[C@H](O)[C@H](C)O2)Oc2ccc(cc2Cl)[C@H]1O [vancomycin]
complete survival, days post-treatment ([7]; vancomycin 20 mg/kg, hybrids 50 mg/kg): more than 20 days | Caco-2 permeation in words (Caco-2 monolayer; apical to basolateral): poor permeation properties | absorbed from the gastrointestinal tract [9]: < 10%

CC(=O)C1=C(O)C(CSCc2ccccc2)N(CCn2c([N+](=O)[O-])cnc2C)C1=O (centres unmarked) [Compound 2313, 3-acetyl-5-((benzylthio)methyl)-4-hydroxy-1-(2-(2-methyl-5-nitro-1H-imidazol-1-yl)ethyl)-1H-pyrrol-2(5H)-one]
Caco-2 permeation in words (Caco-2 monolayer; Caco-2): slightly more permeable than vancomycin | permeability co-efficient (Papp A-B) (Caco-2 monolayer; Caco-2): 284.5±34.7 to 307±35.6

Cc1ncc([N+](=O)[O-])n1CC(=O)C1=C(O)C(CC(C)C)NC1=O (centres unmarked) [Compound 2123, 4-hydroxy-5-isobutyl-3-(2-(2-methyl-5-nitro-1H-imidazol-1-yl)acetyl)-1H-pyrrol-2(5H)-one]
fold less active than 1971 (MIC) [1]: 10 fold

CC(=O)C1=C(O)C(Cc2ccc(-c3ccccc3)cc2)N(CCn2ccnc2C)C1=O (centres unmarked) [Compound 2700, 5-([1,1′-biphenyl]-4-ylmethyl)-3-acetyl-4-hydroxy-1-(2-(2-methyl-1H-imidazol-1-yl)ethyl)-1H-pyrrol-2(5H)-one]
MIC (C. difficile): > 128 µg/mL

CC(=O)C1=C(O)C(Cc2cn(C)c3ccccc23)N(CCn2c([N+](=O)[O-])cnc2C)C1=O (centres unmarked) [Compound 2490]
MIC ([2]; infecting strain ATCC 43596): 0.25 µg/mL (≈ 0.571 µM)

CC(=O)C1=C(O)C(Cc2cccc3ccccc23)N(CCn2c([N+](=O)[O-])cnc2C)C1=O (centres unmarked) [Compound 2344, 3-acetyl-4-hydroxy-1-(2-(2-methyl-5-nitro-1H-imidazol-1-yl)ethyl)-5-(naphthalen-1-ylmethyl)-1H-pyrrol-2(5H)-one]
MIC [2, 10]: 0.25 µg/mL (≈ 0.575 µM) | mean peak cecal concentration [3]: 2,678 ng/mL | Cmax [4]: 211 ng/mL | Tmax [4]: 15 min | AUC [4]: 386 ng·h/mL | half-life [5]: 18 min

CC(=O)C1=C(O)C(Cc2ccccc2)N(CCn2c([N+](=O)[O-])cnc2C)C1=O (centres unmarked) [Compound 2154, 3-acetyl-5-benzyl-4-hydroxy-1-(2-(2-methyl-5-nitro-1H-imidazol-1-yl)ethyl)-1H-pyrrol-2(5H)-one]
Caco-2 permeation in words (Caco-2 monolayer; Caco-2): slightly more permeable than vancomycin | permeability co-efficient (Papp A-B) (Caco-2 monolayer; Caco-2): 284.5±34.7 to 307±35.6
